Reference: the kinase profiling compilation of Christmann-Franck et al. (2016)
Each block holds one compound with its values, some of them ahead of it.

Legend:
CHUK (human) = CHUK (human) (UniProt O15111); experiment: KINOMEscan competition binding; settings: compound 10.0 µM
CSNK2A2 (human) = CSNK2A2 (human) (UniProt P19784); experiment: KINOMEscan competition binding; settings: compound 10.0 µM
DAPK1 (human) = DAPK1 (human) (UniProt P53355); experiment: KINOMEscan competition binding; settings: compound 10.0 µM
GAK (human) = GAK (human) (UniProt O14976); experiment: KINOMEscan competition binding; settings: compound 10.0 µM
HIPK1 (human) = HIPK1 (human) (UniProt Q86Z02); experiment: KINOMEscan competition binding; settings: compound 10.0 µM
MYLK (human) = MYLK (human) (UniProt Q15746); experiment: KINOMEscan competition binding; settings: compound 10.0 µM
MYLK (human), sequence (Q15746 whole entry, looked up): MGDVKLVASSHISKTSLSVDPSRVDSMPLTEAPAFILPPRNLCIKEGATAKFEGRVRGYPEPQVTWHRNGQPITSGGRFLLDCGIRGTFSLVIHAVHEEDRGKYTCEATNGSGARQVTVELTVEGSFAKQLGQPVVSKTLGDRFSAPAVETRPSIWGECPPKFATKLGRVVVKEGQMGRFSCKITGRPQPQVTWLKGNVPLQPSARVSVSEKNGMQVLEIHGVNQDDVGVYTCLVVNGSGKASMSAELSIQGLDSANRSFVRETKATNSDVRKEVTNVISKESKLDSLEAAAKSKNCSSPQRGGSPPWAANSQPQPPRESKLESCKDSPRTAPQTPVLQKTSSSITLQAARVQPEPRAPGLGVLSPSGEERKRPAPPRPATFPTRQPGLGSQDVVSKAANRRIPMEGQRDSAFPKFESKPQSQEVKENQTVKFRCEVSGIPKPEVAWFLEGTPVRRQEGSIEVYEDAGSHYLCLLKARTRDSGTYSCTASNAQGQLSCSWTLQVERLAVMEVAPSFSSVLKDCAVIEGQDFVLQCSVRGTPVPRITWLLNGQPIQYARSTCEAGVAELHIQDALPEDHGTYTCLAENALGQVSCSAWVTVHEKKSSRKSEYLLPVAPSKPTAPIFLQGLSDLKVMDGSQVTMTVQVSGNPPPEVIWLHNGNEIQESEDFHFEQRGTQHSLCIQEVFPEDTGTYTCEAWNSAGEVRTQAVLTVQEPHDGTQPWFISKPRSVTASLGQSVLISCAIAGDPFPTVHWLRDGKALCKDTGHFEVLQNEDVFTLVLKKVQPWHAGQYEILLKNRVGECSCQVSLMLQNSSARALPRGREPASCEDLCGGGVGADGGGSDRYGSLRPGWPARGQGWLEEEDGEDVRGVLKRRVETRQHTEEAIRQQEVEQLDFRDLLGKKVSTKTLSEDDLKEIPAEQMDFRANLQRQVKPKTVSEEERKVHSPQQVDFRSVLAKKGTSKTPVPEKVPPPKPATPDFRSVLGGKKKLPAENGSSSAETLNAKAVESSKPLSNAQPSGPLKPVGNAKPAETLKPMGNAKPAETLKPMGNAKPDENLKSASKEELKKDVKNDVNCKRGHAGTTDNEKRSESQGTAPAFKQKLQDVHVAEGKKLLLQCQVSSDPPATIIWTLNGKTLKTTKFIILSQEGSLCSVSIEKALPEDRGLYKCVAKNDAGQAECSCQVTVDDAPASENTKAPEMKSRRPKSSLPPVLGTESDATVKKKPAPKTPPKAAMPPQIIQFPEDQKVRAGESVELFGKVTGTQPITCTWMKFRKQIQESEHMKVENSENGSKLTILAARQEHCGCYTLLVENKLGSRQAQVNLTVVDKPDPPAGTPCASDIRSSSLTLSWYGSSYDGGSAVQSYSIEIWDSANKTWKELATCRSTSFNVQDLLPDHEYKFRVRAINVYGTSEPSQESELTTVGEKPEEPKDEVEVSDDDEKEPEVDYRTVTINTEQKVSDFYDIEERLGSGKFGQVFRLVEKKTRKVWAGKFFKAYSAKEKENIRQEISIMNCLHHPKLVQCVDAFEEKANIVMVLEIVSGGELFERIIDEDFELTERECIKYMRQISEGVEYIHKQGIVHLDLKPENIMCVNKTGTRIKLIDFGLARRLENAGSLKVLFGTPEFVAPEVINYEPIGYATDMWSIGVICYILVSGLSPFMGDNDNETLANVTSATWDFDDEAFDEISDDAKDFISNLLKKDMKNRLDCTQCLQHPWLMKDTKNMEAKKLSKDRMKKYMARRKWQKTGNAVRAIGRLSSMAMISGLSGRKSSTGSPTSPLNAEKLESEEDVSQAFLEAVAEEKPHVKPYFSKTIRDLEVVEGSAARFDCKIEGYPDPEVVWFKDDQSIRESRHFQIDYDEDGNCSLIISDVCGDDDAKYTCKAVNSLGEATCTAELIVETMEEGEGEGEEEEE

PIK3CG (human) = PIK3CG (human) (UniProt P48736); experiment: KINOMEscan competition binding; settings: compound 10.0 µM
PIM1 (human) [1] = target: PIM1 (human) (UniProt P11309); experiment: KINOMEscan competition binding; settings: compound 10.0 µM
PIM1 (human), sequence (P11309 whole entry, looked up): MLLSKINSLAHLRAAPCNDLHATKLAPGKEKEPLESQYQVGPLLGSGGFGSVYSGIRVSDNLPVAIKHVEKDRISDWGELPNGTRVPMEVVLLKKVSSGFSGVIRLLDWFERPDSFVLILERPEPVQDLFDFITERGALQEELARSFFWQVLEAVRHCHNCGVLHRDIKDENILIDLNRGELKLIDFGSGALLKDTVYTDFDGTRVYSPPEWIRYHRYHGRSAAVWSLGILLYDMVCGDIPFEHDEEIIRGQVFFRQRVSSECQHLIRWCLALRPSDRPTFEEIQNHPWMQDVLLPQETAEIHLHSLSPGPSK

PIM2 (human) [2] = target: PIM2 (human) (UniProt Q9P1W9); experiment: KINOMEscan competition binding; settings: compound 10.0 µM
PIM2 (human), sequence (Q9P1W9 whole entry, looked up): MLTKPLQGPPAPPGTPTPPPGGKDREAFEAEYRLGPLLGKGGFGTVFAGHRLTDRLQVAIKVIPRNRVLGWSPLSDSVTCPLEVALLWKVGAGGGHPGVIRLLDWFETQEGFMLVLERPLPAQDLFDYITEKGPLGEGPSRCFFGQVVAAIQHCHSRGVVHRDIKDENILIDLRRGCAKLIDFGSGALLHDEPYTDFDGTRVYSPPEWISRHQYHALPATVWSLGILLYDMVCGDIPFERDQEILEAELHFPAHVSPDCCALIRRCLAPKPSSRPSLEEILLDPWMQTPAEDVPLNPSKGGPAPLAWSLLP

PIM3 (human) = PIM3 (human) (UniProt Q86V86); experiment: KINOMEscan competition binding; settings: compound 10.0 µM
STK17A (human) = STK17A (human) (UniProt Q9UEE5); experiment: KINOMEscan competition binding; settings: compound 10.0 µM
STK17A (human), sequence (Q9UEE5 whole entry, looked up): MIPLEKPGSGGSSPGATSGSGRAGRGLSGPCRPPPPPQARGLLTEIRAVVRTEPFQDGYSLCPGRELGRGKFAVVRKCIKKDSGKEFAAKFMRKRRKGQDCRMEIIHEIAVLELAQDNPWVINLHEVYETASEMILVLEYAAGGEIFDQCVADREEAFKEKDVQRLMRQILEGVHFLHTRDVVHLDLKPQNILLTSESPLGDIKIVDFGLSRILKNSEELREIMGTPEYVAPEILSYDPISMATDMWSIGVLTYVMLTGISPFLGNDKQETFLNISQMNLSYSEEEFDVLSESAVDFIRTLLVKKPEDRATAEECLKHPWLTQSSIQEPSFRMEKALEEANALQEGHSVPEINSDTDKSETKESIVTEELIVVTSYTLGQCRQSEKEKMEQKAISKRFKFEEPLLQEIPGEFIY

STK17B (human) = STK17B (human) (UniProt O94768); experiment: KINOMEscan competition binding; settings: compound 10.0 µM
[3] = target: TYK2 JH2 pseudokinase (human) (UniProt P29597); experiment: KINOMEscan competition binding; settings: compound 10.0 µM
PIM1 (human) [4] = target: PIM1 (human) (UniProt P11309); experiment: SelectScreen, TR FRET
PIM2 (human) [5] = target: PIM2 (human) (UniProt Q9P1W9); experiment: SelectScreen, TR FRET
CDK16 (human) = CDK16 (human) (UniProt Q00536); experiment: KINOMEscan competition binding; settings: compound 10.0 µM
CDK16 (human), sequence (Q00536 whole entry, looked up): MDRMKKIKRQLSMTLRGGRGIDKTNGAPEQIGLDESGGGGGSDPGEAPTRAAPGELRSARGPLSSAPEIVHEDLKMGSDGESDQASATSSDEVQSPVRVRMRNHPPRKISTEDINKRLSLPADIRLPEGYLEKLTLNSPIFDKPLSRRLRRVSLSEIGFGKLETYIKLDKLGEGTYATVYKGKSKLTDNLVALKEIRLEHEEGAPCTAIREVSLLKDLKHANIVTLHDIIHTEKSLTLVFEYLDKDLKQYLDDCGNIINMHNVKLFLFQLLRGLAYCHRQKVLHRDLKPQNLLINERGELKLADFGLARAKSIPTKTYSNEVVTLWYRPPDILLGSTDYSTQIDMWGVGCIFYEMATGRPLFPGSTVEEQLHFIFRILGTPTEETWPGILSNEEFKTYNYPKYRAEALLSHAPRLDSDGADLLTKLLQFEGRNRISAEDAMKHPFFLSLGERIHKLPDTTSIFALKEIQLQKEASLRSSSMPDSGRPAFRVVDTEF

PLK4 (human) = PLK4 (human) (UniProt O00444); experiment: KINOMEscan competition binding; settings: compound 10.0 µM
CAMKK2 (human) = CAMKK2 (human) (UniProt Q96RR4); experiment: KINOMEscan competition binding; settings: compound 10.0 µM
DCLK1 (human) = DCLK1 (human) (UniProt O15075); experiment: KINOMEscan competition binding; settings: compound 10.0 µM
DCLK2 (human) = DCLK2 (human) (UniProt Q8N568); experiment: KINOMEscan competition binding; settings: compound 10.0 µM
MAP2K3 (human) = MAP2K3 (human) (UniProt P46734); experiment: KINOMEscan competition binding; settings: compound 10.0 µM
MAP2K3 (human), sequence (P46734 whole entry, looked up): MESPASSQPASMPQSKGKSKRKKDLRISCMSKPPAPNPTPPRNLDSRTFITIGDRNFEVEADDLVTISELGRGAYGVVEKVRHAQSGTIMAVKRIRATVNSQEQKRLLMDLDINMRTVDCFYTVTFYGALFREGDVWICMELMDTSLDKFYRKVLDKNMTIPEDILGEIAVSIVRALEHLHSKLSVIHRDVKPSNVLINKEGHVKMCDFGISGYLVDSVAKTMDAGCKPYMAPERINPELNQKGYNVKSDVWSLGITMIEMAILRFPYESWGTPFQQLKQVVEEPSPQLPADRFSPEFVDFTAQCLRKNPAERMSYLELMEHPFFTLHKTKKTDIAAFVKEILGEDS

MAPK7 (human) = MAPK7 (human) (UniProt Q13164); experiment: KINOMEscan competition binding; settings: compound 10.0 µM
PLK1 (human) = PLK1 (human) (UniProt P53350); experiment: KINOMEscan competition binding; settings: compound 10.0 µM
PLK3 (human) = PLK3 (human) (UniProt Q9H4B4); experiment: KINOMEscan competition binding; settings: compound 10.0 µM
RIOK2 (human) = RIOK2 (human) (UniProt Q9BVS4); experiment: KINOMEscan competition binding; settings: compound 10.0 µM
STK33 (human) = STK33 (human) (UniProt Q9BYT3); experiment: KINOMEscan competition binding; settings: compound 10.0 µM
TNK1 (human) = TNK1 (human) (UniProt Q13470); experiment: KINOMEscan competition binding; settings: compound 10.0 µM
TTK (human) = TTK (human) (UniProt P33981); experiment: KINOMEscan competition binding; settings: compound 10.0 µM
TTK (human), sequence (P33981 whole entry, looked up): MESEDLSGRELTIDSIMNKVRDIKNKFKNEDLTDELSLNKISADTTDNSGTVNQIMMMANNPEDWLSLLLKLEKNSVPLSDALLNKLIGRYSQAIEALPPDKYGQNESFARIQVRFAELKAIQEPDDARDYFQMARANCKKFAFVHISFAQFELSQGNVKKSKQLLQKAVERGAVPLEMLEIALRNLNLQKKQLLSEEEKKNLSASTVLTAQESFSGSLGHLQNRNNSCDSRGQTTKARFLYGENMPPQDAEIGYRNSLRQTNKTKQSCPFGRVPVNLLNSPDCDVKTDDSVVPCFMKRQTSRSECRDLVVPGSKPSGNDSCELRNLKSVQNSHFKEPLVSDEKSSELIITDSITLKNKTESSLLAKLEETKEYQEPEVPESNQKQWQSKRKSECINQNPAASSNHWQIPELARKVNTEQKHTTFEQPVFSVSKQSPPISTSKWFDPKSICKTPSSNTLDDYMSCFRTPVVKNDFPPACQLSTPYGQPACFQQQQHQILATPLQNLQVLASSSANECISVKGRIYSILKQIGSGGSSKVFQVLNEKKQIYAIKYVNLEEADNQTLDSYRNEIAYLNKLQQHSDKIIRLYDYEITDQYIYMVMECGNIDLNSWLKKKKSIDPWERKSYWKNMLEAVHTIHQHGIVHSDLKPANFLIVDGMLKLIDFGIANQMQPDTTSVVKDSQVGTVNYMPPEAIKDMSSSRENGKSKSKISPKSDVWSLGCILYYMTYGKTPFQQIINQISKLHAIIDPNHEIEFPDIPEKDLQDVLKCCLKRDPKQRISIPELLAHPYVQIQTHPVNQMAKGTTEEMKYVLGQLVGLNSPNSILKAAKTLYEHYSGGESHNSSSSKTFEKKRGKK

RPS6KA1 KD2 (human) = RPS6KA1 KD2 (human) (UniProt Q15418); experiment: KINOMEscan competition binding; settings: compound 10.0 µM
RPS6KA2 KD2 (human) = RPS6KA2 KD2 (human) (UniProt Q15349); experiment: KINOMEscan competition binding; settings: compound 10.0 µM
RPS6KA6 KD2 (human) = RPS6KA6 KD2 (human) (UniProt Q9UK32); experiment: KINOMEscan competition binding; settings: compound 10.0 µM
[6] = system: EGFR (human), P00533 [G719S]; experiment: KINOMEscan competition binding; settings: compound 10.0 µM
MAPK15 (human) = MAPK15 (human) (UniProt Q8TD08); experiment: KINOMEscan competition binding; settings: compound 10.0 µM
TAOK1 (human) = TAOK1 (human) (UniProt Q7L7X3); experiment: KINOMEscan competition binding; settings: compound 10.0 µM

Compound: COc1cc(C(=O)NC2CCC(O)CC2)ccc1Nc1ncc2c(n1)N(C1CCCC1)[C@@H]1CCC[C@@H]1C(=O)N2C (some centres not stated)
kinase still bound, per cent of control (CAMKK2 (human)): 27%
kinase still bound, per cent of control (DCLK1 (human)): 8.2%
kinase still bound, per cent of control (DCLK2 (human)): 17%
kinase still bound, per cent of control (GAK (human)): 28%
kinase still bound, per cent of control (MAP2K3 (human)): 0.3%
kinase still bound, per cent of control (MAPK7 (human)): 14%
kinase still bound, per cent of control (MYLK (human)): 1.7%
kinase still bound, per cent of control (PLK1 (human)): 0%
kinase still bound, per cent of control (PLK3 (human)): 0.9%
kinase still bound, per cent of control (PLK4 (human)): 4.3%
kinase still bound, per cent of control (RIOK2 (human)): 0.5%
kinase still bound, per cent of control (STK17A (human)): 0%
kinase still bound, per cent of control (STK17B (human)): 0%
kinase still bound, per cent of control (STK33 (human)): 34%
kinase still bound, per cent of control (TNK1 (human)): 14%
kinase still bound, per cent of control (TTK (human)): 32%

Compound: O=C1NC(=S)S/C1=C\c1ccc(-c2csc3ccccc23)o1
IC50 (PIM1 (human) [4]): 722 nM
IC50 (PIM2 (human) [5]): 375 nM

Compound: CC(C)Oc1cc(N2CCC(N(C)C)CC2)ccc1Nc1ncc2c(n1)N1CCC[C@H]1CC(=O)N2C
kinase still bound, per cent of control (DCLK1 (human)): 7.4%
kinase still bound, per cent of control (MYLK (human)): 26%
kinase still bound, per cent of control (RPS6KA1 KD2 (human)): 34%
kinase still bound, per cent of control (RPS6KA2 KD2 (human)): 9.4%
kinase still bound, per cent of control (RPS6KA6 KD2 (human)): 24%
kinase still bound, per cent of control (TTK (human)): 12%

Compound: CCN1CCN(Cc2cc(NC(=O)c3cccc4cc(-c5ccc(/C=C6\SC(=N)NC6=O)o5)ccc34)cc(C(F)(F)F)c2)CC1
IC50 (PIM1 (human) [4]): 774 nM
IC50 (PIM2 (human) [5]): 814 nM

Second part, led by results:

kinase still bound, per cent of control (CHUK (human)): 32%
Compound: NS(=O)(=O)c1ccc(-c2ccc(/C=C3\NC(=S)NC3=O)o2)cc1

kinase still bound, per cent of control (CSNK2A2 (human)): 21%
kinase still bound, per cent of control (DAPK1 (human)): 34%
kinase still bound, per cent of control (GAK (human)): 26%
kinase still bound, per cent of control (HIPK1 (human)): 1.1%
kinase still bound, per cent of control (MYLK (human)): 27%
kinase still bound, per cent of control (PIK3CG (human)): 17%
kinase still bound, per cent of control (PIM1 (human) [1]): 1.4%
kinase still bound, per cent of control (PIM2 (human) [2]): 0.75%
kinase still bound, per cent of control (PIM3 (human)): 1.2%
kinase still bound, per cent of control (STK17A (human)): 20%
kinase still bound, per cent of control (STK17B (human)): 0.65%
kinase still bound, per cent of control [3]: 14%
IC50 (PIM1 (human) [4]): 246 nM
IC50 (PIM2 (human) [5]): 133 nM
Compound: O=C1NC(=O)/C(=C/c2ccc(-c3ccc(C(=O)Nc4ccc(N5CCNCC5)cc4)cc3)o2)S1

kinase still bound, per cent of control (CDK16 (human)): 10%
kinase still bound, per cent of control (PIK3CG (human)): 22%
kinase still bound, per cent of control (PIM1 (human) [1]): 1.8%
kinase still bound, per cent of control (PIM3 (human)): 2.2%
kinase still bound, per cent of control (PLK4 (human)): 14%
IC50 (PIM1 (human) [4]): 305 nM
IC50 (PIM2 (human) [5]): 177 nM
Compound: NS(=O)(=O)c1ccc(-c2ccc(/C=C3\SC(=S)NC3=O)o2)cc1

kinase still bound, per cent of control (CDK16 (human)): 10%
kinase still bound, per cent of control [6]: 16%
kinase still bound, per cent of control (HIPK1 (human)): 0.4%
kinase still bound, per cent of control (MAP2K3 (human)): 21%
kinase still bound, per cent of control (PIM1 (human) [1]): 23%
kinase still bound, per cent of control (PIM2 (human) [2]): 9.2%
kinase still bound, per cent of control (PIM3 (human)): 13%
kinase still bound, per cent of control (TAOK1 (human)): 26%
Compound: CS(=O)(=O)Nc1ccc(-c2cccc(/C=C3\SC(=N)NC3=O)n2)cc1
kinase still bound, per cent of control (MAPK15 (human)): 22%
